Test results as given in ChEMBL document CHEMBL1134921 (Bioorg Med Chem Lett, 2002).

What was measured:
Mus musculus [1] = organism: Mus musculus; experiment: Effective dose for Antinociceptive activity was determined in mice using Tail -Flick Assay; assay type: functional
Mus musculus [2] = experiment: Effective dose for Antinociceptive activity expressed as Spontaneous activity was determined in mice antagonized by 1 mg/Kg of Mecamylamine.; assay type: functional
[3] = molecular target: Neuronal nicotinic acetylcholine receptor; experiment: Binding affinity against Nicotinic acetylcholine receptor using [3H](-)-nicotine radioligand; assay type: protein-complex assay
Rattus norvegicus [4] = organism: Rattus norvegicus; experiment: Effective dose for Antinociceptive activity was determined in rat using drug discrimination assay; assay type: functional
Mus musculus [5] = experiment: Compound was tested to antagonize the antinociceptive actions of 2.5 mg/kg of (-)nicotine as measured in the tail-flick assay in mice; assay type: functional
Mus musculus [6] = organism: Mus musculus; experiment: Effective dose for Antinociceptive activity was determined in mice using Tail -Flick Assay: The symbol > signifies that no effect was produced at that dose; assay type: functional
Mus musculus [7] = experiment: Effective dose for Antinociceptive activity expressed as Spontaneous activity was determined in mice antagonized by 1 mg/Kg of Mecamylamine: The symbol > signifies that no effect was produced at that dose; assay type: functional
Rattus norvegicus [8] = organism: Rattus norvegicus; experiment: Effective dose for Antinociceptive activity was determined in rat using drug discrimination assay: The symbol > signifies that no effect was produced at that dose; assay type: functional
[9] = Mus musculus, Tail, read-out: ED50
[10] = Rattus norvegicus, read-out: ED50

SMILES	ED50 (Mus musculus [1]; [9])	ED50 (Mus musculus [2]; Mus musculus, read-out: ED50)	Ki [3]	ED50 (Rattus norvegicus [4]; [10])	ED50 (Mus musculus [6])	also measured
CCc1ccc(C2CCCN2C)cn1 (single isomer, unassigned; (-))	2.1 µmol/kg	1.4 µmol/kg	5.6 nM	1.1 µmol/kg		
CCCCc1ccc(C2CCCN2C)cn1 (single isomer, unassigned; (-))			21 nM		> 50 µmol/kg	AD50 (Mus musculus [5]): 9.2 µM/kg
CCCc1ccc(C2CCCN2C)cn1 (single isomer, unassigned; (-))			22 nM			AD50 (Mus musculus [5]): 4.9 µM/kg; ED50 (Mus musculus [7]): > 35 µmol/kg; ED50 (Rattus norvegicus [8]): >50 µM/kg
CN1CCC[C@H]1c1cccnc1 [NICOTINE]						ED50 (Mus musculus [1]): 7.4 µM/kg; ED50 (Mus musculus [2]): 3.1 µM/kg; ED50 (Rattus norvegicus [4]): 0.6 µM/kg
CCCc1ccc(C2CCCN2C)cn1 (racemic)			25 nM		> 70 µmol/kg	ED50 (Rattus norvegicus [8]): >20 µM/kg
Cc1ccc(C2CCCN2C)cn1 (racemic)	3.5 µmol/kg	1 µmol/kg	1.8 nM	0.4 µmol/kg		
CN1CCC[C@H]1c1cccnc1 (racemic) [NICOTINE]	9.9 µmol/kg	4.9 µmol/kg		0.6 µmol/kg		
CCCCCc1ccc(C2CCCN2C)cn1 (racemic)			72 nM		> 50 µmol/kg	ED50 (Mus musculus [7]): > 50 µmol/kg
